Measurements published in patent publication US20140107219A1, “LOCAL ANAESTHETIC” (VITA (EUROPE) LIMITED, priority 2011, published 2014).
Values joined by “and” are separate entries in the source; they are usually repeats but may differ in a detail not shown here. Equal values may be shown once. Read-outs that look alike come from different tables or passages of the source.

Tests used:
[1] = system: gastrocnemius muscle; experiment: In vivo muscle CAP (mCAP, EMG integral) after intramuscular injection, gastrocnemius muscle; set-up: species or system rat
[2] = system: isolated sciatic nerve of the rat; experiment: Evoked compound action potential (CAP) of the isolated rat sciatic nerve in a three-chamber bath (ex vivo): inhibition and recovery after washout; conditions: for IT0: 15 mM (1.7 mg/mL)
[3] = in vivo; cited from earlier work
[4] = Acute LD50; assay type: in vivo; conditions: from acute LD50
[5] = target: T1, hNav1.6 sodium channels (SCN8A gene, expressed in CHO cells) (Homo sapiens, UniProt Q9UQD0); experiment: Automated patch clamp (PatchXpress 7000A), cloned hNav1.6 in CHO cells, tonic and phasic; assay type: cell-based; conditions: for inhibition at 730 µg/mL / inhibition at 1460 µg/mL / inhibition at 2190 µg/mL / inhibition at 2920 µg/mL: CHO
T1 construct: expressed in transfected cells; host or cells: CHO cells
T1 sequence (Q9UQD0 whole entry): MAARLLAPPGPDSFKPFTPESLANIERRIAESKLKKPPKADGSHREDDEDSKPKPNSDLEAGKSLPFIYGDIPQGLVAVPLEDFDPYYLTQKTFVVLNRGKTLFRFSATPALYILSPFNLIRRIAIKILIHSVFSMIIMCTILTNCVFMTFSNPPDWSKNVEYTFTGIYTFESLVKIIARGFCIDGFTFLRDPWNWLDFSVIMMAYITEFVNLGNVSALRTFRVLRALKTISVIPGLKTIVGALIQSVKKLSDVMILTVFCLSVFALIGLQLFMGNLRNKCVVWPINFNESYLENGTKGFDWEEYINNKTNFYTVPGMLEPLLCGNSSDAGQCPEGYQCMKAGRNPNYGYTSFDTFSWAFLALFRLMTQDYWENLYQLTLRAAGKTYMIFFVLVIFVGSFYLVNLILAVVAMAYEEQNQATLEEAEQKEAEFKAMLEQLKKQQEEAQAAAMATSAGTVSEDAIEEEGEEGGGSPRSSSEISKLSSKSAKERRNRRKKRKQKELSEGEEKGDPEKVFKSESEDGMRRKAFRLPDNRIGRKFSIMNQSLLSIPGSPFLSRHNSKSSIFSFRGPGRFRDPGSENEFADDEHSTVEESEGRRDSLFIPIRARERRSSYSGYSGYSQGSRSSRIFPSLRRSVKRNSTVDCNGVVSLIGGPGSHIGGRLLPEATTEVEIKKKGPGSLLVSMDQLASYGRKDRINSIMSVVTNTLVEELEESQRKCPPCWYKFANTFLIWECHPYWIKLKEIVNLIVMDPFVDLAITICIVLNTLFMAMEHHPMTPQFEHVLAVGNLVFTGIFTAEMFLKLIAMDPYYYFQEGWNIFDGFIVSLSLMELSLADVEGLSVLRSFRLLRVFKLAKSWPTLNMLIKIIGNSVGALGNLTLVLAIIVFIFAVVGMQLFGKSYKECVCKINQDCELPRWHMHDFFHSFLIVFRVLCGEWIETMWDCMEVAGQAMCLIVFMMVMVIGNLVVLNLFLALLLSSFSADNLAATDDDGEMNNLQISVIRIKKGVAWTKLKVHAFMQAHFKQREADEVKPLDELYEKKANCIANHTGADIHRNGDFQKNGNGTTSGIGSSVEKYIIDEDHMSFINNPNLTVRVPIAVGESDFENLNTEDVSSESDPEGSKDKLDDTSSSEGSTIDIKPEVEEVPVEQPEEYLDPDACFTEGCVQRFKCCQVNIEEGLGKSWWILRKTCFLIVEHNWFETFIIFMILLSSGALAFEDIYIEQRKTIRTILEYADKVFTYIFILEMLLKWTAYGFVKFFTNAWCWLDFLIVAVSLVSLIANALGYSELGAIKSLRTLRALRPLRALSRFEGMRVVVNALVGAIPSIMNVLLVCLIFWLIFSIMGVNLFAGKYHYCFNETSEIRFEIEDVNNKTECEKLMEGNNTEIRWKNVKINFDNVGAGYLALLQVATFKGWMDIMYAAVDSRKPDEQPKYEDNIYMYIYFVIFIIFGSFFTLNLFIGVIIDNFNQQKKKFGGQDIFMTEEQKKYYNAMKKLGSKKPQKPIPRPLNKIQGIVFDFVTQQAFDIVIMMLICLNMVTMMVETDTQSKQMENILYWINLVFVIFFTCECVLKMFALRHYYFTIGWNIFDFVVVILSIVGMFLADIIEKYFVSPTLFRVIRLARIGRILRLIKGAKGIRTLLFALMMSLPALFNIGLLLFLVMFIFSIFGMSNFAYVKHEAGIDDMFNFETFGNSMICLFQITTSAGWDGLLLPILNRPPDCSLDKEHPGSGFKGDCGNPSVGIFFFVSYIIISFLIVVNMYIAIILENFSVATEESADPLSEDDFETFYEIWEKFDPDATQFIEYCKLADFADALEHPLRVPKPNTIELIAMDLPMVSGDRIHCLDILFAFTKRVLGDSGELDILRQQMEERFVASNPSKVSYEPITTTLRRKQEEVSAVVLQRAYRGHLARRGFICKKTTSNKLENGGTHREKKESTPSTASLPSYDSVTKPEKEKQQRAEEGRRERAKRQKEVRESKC
Method: In this example, the in vitro effects of 2-heptanone on the following ion channels were evaluated at room temperature using the PatchXpress 7000A (Molecular Devices), an automatic parallel patch clamp system:
(§1) 1. Cloned hNav1.2 sodium channels (SCN2A gene, expressed in CHO cells). 2. Cloned hNav1.6 sodium channels (SCN8A gene, expressed in CHO cells).
The effects of 2-heptanone were evaluated at 0.73, 1.46, 2.19, and 2.92 mg/ml with each concentration tested in two cells (n=2). The duration of exposure to each concentration of 2-heptanone was 5 minutes. Tables 2 to 5 show the individual results from each concentration followed by individual concentration-response curves. The positive controls (Table 6) confirm the sensitivity of the test systems to inhibition.
. Br. J. Pharmacol. 164, 719-730). […]

[6] = system: peripheral nervous system of the rat; conditions: in-vivo; cited from earlier work
[7] = system: biceps muscle; experiment: In vivo muscle CAP (mCAP, EMG integral) after intramuscular injection, biceps muscle; conditions: 7.2 mg/kg intramuscular
[8] = target: T2, hNav1.2 sodium channels (SCN2A gene, expressed in CHO cells) (Homo sapiens, UniProt Q99250); experiment: Automated patch clamp (PatchXpress 7000A), cloned hNav1.2 in CHO cells, tonic and phasic; assay type: cell-based; conditions: for inhibition at 730 µg/mL / inhibition at 1460 µg/mL / inhibition at 2190 µg/mL / inhibition at 2920 µg/mL: CHO
T2 construct: expressed in transfected cells; host or cells: CHO cells
T2 sequence (Q99250 whole entry): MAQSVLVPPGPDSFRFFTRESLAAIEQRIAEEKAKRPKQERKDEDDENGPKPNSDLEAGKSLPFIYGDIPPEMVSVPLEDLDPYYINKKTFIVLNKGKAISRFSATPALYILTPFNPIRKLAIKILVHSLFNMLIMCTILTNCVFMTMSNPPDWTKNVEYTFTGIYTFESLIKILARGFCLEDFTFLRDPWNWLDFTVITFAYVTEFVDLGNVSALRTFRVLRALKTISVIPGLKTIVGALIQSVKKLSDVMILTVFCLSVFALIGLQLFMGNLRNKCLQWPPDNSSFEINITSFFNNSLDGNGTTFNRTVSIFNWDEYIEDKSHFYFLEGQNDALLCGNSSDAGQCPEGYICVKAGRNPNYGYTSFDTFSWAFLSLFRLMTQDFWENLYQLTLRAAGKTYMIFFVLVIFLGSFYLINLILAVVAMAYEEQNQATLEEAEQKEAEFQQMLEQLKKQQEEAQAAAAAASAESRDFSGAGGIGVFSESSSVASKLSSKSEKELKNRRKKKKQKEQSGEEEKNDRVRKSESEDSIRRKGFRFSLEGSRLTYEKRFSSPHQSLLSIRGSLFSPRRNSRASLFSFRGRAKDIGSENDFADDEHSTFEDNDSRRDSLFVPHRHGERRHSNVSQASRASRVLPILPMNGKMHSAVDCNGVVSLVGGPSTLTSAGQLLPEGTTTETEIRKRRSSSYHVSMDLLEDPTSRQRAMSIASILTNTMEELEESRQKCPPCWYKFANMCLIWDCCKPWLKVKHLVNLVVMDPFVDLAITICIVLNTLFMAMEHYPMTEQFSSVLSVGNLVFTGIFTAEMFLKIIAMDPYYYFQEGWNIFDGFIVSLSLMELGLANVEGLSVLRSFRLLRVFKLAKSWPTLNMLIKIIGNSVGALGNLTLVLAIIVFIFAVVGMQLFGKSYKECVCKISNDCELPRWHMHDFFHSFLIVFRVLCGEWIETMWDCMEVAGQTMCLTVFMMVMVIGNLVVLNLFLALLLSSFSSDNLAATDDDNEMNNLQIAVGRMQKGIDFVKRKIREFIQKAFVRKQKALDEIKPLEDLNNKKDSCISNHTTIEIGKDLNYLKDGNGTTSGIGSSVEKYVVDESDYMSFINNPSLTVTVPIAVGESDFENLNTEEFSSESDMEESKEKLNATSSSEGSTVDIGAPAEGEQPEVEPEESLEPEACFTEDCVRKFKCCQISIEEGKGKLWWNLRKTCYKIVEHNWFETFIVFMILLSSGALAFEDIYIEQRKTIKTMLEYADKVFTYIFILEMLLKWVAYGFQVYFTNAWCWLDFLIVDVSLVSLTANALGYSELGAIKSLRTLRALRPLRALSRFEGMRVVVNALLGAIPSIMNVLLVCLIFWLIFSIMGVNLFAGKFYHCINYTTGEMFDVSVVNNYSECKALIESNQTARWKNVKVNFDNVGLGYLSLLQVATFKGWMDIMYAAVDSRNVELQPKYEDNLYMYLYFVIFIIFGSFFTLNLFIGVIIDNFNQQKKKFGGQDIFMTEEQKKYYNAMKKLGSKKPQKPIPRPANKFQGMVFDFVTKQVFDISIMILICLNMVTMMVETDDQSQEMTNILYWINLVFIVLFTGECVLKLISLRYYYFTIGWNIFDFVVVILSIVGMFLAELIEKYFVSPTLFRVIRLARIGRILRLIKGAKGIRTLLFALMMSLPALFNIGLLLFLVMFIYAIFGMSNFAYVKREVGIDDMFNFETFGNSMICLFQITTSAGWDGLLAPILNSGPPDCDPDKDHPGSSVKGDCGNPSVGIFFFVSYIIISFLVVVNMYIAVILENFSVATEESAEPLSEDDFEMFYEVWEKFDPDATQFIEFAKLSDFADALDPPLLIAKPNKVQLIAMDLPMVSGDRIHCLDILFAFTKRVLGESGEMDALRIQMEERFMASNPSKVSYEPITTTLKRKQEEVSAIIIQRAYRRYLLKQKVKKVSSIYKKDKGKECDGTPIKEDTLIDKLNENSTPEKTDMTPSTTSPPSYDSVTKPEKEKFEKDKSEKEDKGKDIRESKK
From the text: as §1

CCCCCC(C)=O [2-heptanone]
recovery of mCAP after 3 h ([1]; 7.2 mg/kg intramuscular): 65.4±7.78% and 61% | IT50 of the integral of mCAPs ([1]; 7.2 mg/kg intramuscular, in Tween 80 + 0.9% NaCl): 25.78 s | IT50 of the integral of mCAPs ([1]; 10.8 mg/kg intramuscular): 11.16 s | recovery of mCAP, % of initial values after 3 h ([1]; 10.8 mg/kg intramuscular): no recovery | times more effective than lidocaine ([1]; similar IT50 at 7.2 mg/kg vs 10.8 mg/kg lidocaine): 1.5 times | IT100 / IT0 ([2]; 1.41 mg/mL): 517.5 ± 25.62 s | IT100 / IT0 ([2]; 1.41 mg/mL, listed as 2-Heptanone): 517.5 ± 25.62 s | IT100 / IT0 ([2]; 2.28 mg/mL (20 mM)): 358.8 ± 18.07 s | IT100 / IT0 ([2]; 2.28 mg/mL (20 mM), listed as 2-Heptanone): 358.8 ± 18.07 s | IT50 (time to inhibit CAP amplitude to 50% of control) ([2]; 10 mg/mL): 22.3 ± 1.1 s | CAP decreased to (% of control) ([2]; 10 mg/mL, within 70 seconds of treatment): 24% | IT50 (time to inhibit CAP amplitude to 50% of control) ([2]; 10 mg/mL, listed as 2-Heptanone): 22.3 ± 1.1 s | IT0 ([2]; stagnant saline, n=5): 5 to 9 min | IT0 ([2]; stirred saline, individual nerves): 5 min and 10 min | recovery of the CAP after washout, % of control ([2]; after 1.41 mg/mL): above 87.5% | IC50 (concentration required to inhibit the CAP to 50% of control) ([2]; estimated from time-response curves, GraphPad Prism 5): 469 ± 2 µg/mL | neurotoxic effect on nerve fibres ([2]; ex vivo, within the limits of 24 h): no neurotoxic effect | fold slower than lidocaine ([2]; whole nerve preparation): 1.54 fold | acute LD50 [3]: 1760 mg/kg | times less toxic than lidocaine [4]: 5.6 times | times less active than lidocaine, hNav1.6 phasic [5]: 11.7 times | times less active than lidocaine, hNav1.6 tonic [5]: 4.6 times | Individual Data Points (% Inhibition), Nav1.6 phasic ([5]; 0.73 mg/ml, single cells): 81.1% | Individual Data Points (% Inhibition), Nav1.6 tonic ([5]; 0.73 mg/ml, single cells): 52.6% | Individual Data Points (% Inhibition), Nav1.6 phasic ([5]; 1.46 mg/ml, single cells): 99.9% | Individual Data Points (% Inhibition), Nav1.6 tonic ([5]; 1.46 mg/ml, single cells): 70.4% | Individual Data Points (% Inhibition), Nav1.6 phasic ([5]; 2.19 mg/ml, single cells): 101.0% | Individual Data Points (% Inhibition), Nav1.6 tonic ([5]; 2.19 mg/ml, single cells): 100.1% | Individual Data Points (% Inhibition), Nav1.6 phasic ([5]; 2.92 mg/ml, single cells): 100.7% | Individual Data Points (% Inhibition), Nav1.6 tonic ([5]; 2.92 mg/ml, single cells): 99.9% | inhibition at 730 µg/mL ([5]; 0.73 mg/ml, single cells, read-out: Individual Data Points (% Inhibition), Nav1.6 phasic): 94% | inhibition at 730 µg/mL ([5]; 0.73 mg/ml, single cells, read-out: Individual Data Points (% Inhibition), Nav1.6 tonic): 40.9% | inhibition at 730 µg/mL ([5]; 0.73 mg/ml, read-out: Mean % Inhibition, Nav1.6 phasic): 87.6% | inhibition at 730 µg/mL ([5]; 0.73 mg/ml, read-out: Mean % Nav1.6 Tonic Inhibition): 46.8% | inhibition at 1460 µg/mL ([5]; 1.46 mg/ml, single cells, read-out: Individual Data Points (% Inhibition), Nav1.6 phasic): 102% | inhibition at 1460 µg/mL ([5]; 1.46 mg/ml, single cells, read-out: Individual Data Points (% Inhibition), Nav1.6 tonic): 70.8% | inhibition at 1460 µg/mL ([5]; 1.46 mg/ml, read-out: Mean % Inhibition, Nav1.6 phasic): 101% | inhibition at 1460 µg/mL ([5]; 1.46 mg/ml, read-out: Mean % Nav1.6 Tonic Inhibition): 70.6% | inhibition at 2190 µg/mL ([5]; 2.19 mg/ml, single cells, read-out: Individual Data Points (% Inhibition), Nav1.6 phasic): 102% | inhibition at 2190 µg/mL ([5]; 2.19 mg/ml, single cells, read-out: Individual Data Points (% Inhibition), Nav1.6 tonic): 96.5% | inhibition at 2190 µg/mL ([5]; 2.19 mg/ml, read-out: Mean % Inhibition, Nav1.6 phasic): 101% | inhibition at 2190 µg/mL ([5]; 2.19 mg/ml, read-out: Mean % Nav1.6 Tonic Inhibition): 98.3% | inhibition at 2920 µg/mL ([5]; 2.92 mg/ml, single cells, read-out: Individual Data Points (% Inhibition), Nav1.6 phasic): 101% | inhibition at 2920 µg/mL ([5]; 2.92 mg/ml, single cells, read-out: Individual Data Points (% Inhibition), Nav1.6 tonic): 96.1% | inhibition at 2920 µg/mL ([5]; 2.92 mg/ml, read-out: Mean % Inhibition, Nav1.6 phasic): 101% | inhibition at 2920 µg/mL ([5]; 2.92 mg/ml, read-out: Mean % Nav1.6 Tonic Inhibition): 98% | IC50 ([5]; Example 7, n=2, read-out: Nav1.6 phasic IC50): < 6.39 mM | IC50 ([5]; Example 7, n=2, read-out: Nav1.6 tonic IC50 (converted)): 7.06 mM and 7.07 mM | hNav1.6 IC50, phasic ([5]; Example 18, mean ± SEM): 820 ± 30 µg/mL | IC50 ([5]; Example 18, mean ± SEM, read-out: hNav1.6 IC50, tonic (converted)): 11.7 mM | Hill coefficient, Nav1.6 phasic ([5]; FIG. 41, mean±SE): 1.10±0.06 | Hill coefficient, Nav1.6 tonic ([5]; FIG. 41, mean±SE): 1.35±0.12 | neurotoxic effects on the peripheral nervous system [6]: no neurotoxic effects | IT50 of mCAPs [7]: 9.13 ± 0.73 s and 9.13 s | times less active than lidocaine, hNav1.2 phasic [8]: 12.8 times | times less active than lidocaine, hNav1.2 tonic [8]: 7 times | Individual Data Points (% Inhibition), Nav1.2 phasic ([8]; 0.73 mg/ml, single cells): 44.6% | Individual Data Points (% Inhibition), Nav1.2 tonic ([8]; 0.73 mg/ml, single cells): 27. % | Individual Data Points (% Inhibition), Nav1.2 phasic ([8]; 1.46 mg/ml, single cells): 64.7% | Individual Data Points (% Inhibition), Nav1.2 tonic ([8]; 1.46 mg/ml, single cells): 45.8% | Individual Data Points (% Inhibition), Nav1.2 phasic ([8]; 2.19 mg/ml, single cells): 92.4% | Individual Data Points (% Inhibition), Nav1.2 tonic ([8]; 2.19 mg/ml, single cells): 73. % | Individual Data Points (% Inhibition), Nav1.2 phasic ([8]; 2.92 mg/ml, single cells): 99.8% | Individual Data Points (% Inhibition), Nav1.2 tonic ([8]; 2.92 mg/ml, single cells): 89. % | inhibition at 730 µg/mL ([8]; 0.73 mg/ml, single cells, read-out: Individual Data Points (% Inhibition), Nav1.2 phasic): 44.3% | inhibition at 730 µg/mL ([8]; 0.73 mg/ml, single cells, read-out: Individual Data Points (% Inhibition), Nav1.2 tonic): 31.5% | inhibition at 730 µg/mL ([8]; 0.73 mg/ml, read-out: Mean % Nav1.2 Phasic Inhibition): 44.4% | inhibition at 730 µg/mL ([8]; 0.73 mg/ml, read-out: Mean % Nav1.2 Tonic Inhibition): 29.7% | inhibition at 1460 µg/mL ([8]; 1.46 mg/ml, single cells, read-out: Individual Data Points (% Inhibition), Nav1.2 phasic): 67.9% | inhibition at 1460 µg/mL ([8]; 1.46 mg/ml, single cells, read-out: Individual Data Points (% Inhibition), Nav1.2 tonic): 49.3% | inhibition at 1460 µg/mL ([8]; 1.46 mg/ml, read-out: Mean % Nav1.2 Phasic Inhibition): 66.3% | inhibition at 1460 µg/mL ([8]; 1.46 mg/ml, read-out: Mean % Nav1.2 Tonic Inhibition): 47.6% | inhibition at 2190 µg/mL ([8]; 2.19 mg/ml, single cells, read-out: Individual Data Points (% Inhibition), Nav1.2 phasic): 87.6% | inhibition at 2190 µg/mL ([8]; 2.19 mg/ml, single cells, read-out: Individual Data Points (% Inhibition), Nav1.2 tonic): 56.7% | inhibition at 2190 µg/mL ([8]; 2.19 mg/ml, read-out: Mean % Nav1.2 Phasic Inhibition): 90% | inhibition at 2190 µg/mL ([8]; 2.19 mg/ml, read-out: Mean % Nav1.2 Tonic Inhibition): 65.1% | inhibition at 2920 µg/mL ([8]; 2.92 mg/ml, single cells, read-out: Individual Data Points (% Inhibition), Nav1.2 phasic): 98.2% | inhibition at 2920 µg/mL ([8]; 2.92 mg/ml, single cells, read-out: Individual Data Points (% Inhibition), Nav1.2 tonic): 78.7% | inhibition at 2920 µg/mL ([8]; 2.92 mg/ml, read-out: Mean % Nav1.2 Phasic Inhibition): 99% | inhibition at 2920 µg/mL ([8]; 2.92 mg/ml, read-out: Mean % Nav1.2 Tonic Inhibition): 83.9% | IC50 ([8]; Example 7, n=2, read-out: Nav1.2 phasic IC50 (converted)): 7.57 mM and 7.58 mM | IC50 ([8]; Example 7, n=2, read-out: Nav1.2 tonic IC50 (converted)): 12.1 mM | IC50 ([8]; Example 18, mean ± SEM, read-out: hNav1.2 IC50, phasic (converted)): 11.2 mM | IC50 ([8]; Example 18, mean ± SEM, read-out: hNav1.2 IC50, tonic (converted)): 16.6 mM | Hill coefficient, Nav1.2 phasic ([8]; FIG. 41, mean±SE): 1.24±0.17 | Hill coefficient, Nav1.2 tonic ([8]; FIG. 41, mean±SE): 1.44±0.02
